Data: patent publication EP4635969A1, “NOVEL GLUCOCORTICOID, METHOD FOR PREPARING SAME, AND USE THEREOF” (Tianjin Pharmaceutical Biotechnology Co., Ltd., priority 2022, dated 2024)
Read-outs that look alike come from different tables or passages of the source.

Legend:
Format in all cases: cell-based
[1] = molecular target: T1, glucocorticoid receptor (GR) (Homo sapiens, UniProt P04150); experiment: Assay for agonist activity on glucocorticoid receptor (luciferase reporter, HEK293 cells transfected with pBIND-GR plasmid)
T1 sequence (P04150 521-777): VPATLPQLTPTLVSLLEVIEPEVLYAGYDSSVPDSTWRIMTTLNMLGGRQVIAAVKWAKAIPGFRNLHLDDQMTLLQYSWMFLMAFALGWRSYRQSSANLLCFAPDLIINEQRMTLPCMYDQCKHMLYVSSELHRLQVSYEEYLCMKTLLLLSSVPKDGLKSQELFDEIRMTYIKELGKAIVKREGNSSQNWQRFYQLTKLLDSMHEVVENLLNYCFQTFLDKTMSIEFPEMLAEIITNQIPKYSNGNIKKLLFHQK
In short: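 HEK293 cells transfected with pBIND-GR, seeded in phenol red-free DMEM with 5% charcoal-stripped serum, then exposed to compounds in a 10-point, 4-fold dilution series from 10 µM, in duplicate. Luciferase luminescence read after incubation; EC50 from nonlinear fit. Vehicle blank: 0.1% DMSO.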

[2] = molecular target: T2, mineralocorticoid receptor (MR) (Homo sapiens, UniProt P08235); experiment: Assay for agonist activity on mineralocorticoid receptor (luciferase reporter, HEK293 cells transfected with pBIND-MR plasmid); settings: for EC50: EC50 of agonist activity, HEK293 reporter cells, top concentration 50 µM, read-out: Nuclear receptor enzyme activity (nM) MR; for Target selectivity MR/GR: ratio of EC50 values
T2 sequence (P08235 726-984): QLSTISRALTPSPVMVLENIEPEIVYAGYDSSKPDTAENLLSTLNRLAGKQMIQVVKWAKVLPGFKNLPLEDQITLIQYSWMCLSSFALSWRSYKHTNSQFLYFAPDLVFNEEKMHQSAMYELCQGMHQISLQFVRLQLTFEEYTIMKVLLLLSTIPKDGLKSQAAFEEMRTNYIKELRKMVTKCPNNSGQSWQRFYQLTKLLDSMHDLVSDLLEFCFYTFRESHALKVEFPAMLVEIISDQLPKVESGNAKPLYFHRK
Description: (§1) Pharmacological Example 2: Assay for Agonist Activity on Mineralocorticoid Receptor (MR) and Progesterone Receptor (PR)
(§2) Test compound stock solutions: The test compounds (compounds 4, 5, 7, 8, 9, 11, 13, 16, 17, 18, 22, 23, 24, 34, 35, 36, 38, 41, 45, 47, 53, 55, and 59) were accurately weighed, dissolved in DMSO to prepare stock solutions at a concentration of 20 mM, and stored at -20 °C.
(§3) The test compounds were subjected to a 4-fold serial dilution starting from an initial concentration of 50 µ M, generating a 12-point concentration gradient with duplicate wells for each concentration. The blank control consisted of 0.1% DMSO.
(§4) The HEK293 stable cell lines […] transfected with mineralocorticoid receptor (MR) and progesterone receptor (PR) (ICE Bioscience, Lot No. TYP-20220819, TPJ-20220812) were cultured in Dulbecco's Modified Eagle Medium (DMEM) supplemented with 10% fetal bovine serum (FBS) and 200 µ g/ml Hygromycin B in a cell incubator containing 5% CO2 at 37 °C. The spent medium was aspirated, and the cells were washed once with phosphate-buffered saline (PBS). Then, 1 mL of TrypLE™ Express solution was added, and the cells were incubated at 37 °C for approximately 2 min. When the cells detached from the bottom of the cell culture dish, approximately 5 mL of pre-warmed complete medium at 37 °C was added. The cell suspension was gently pipetted with a pipette to dissociate clumped cells. The cell suspension was transferred to a sterile centrifuge tube and centrifuged at 1000 rpm for 5 min to pellet the cells for experiments or subculture..
(§5) HEK293 cells were digested and seeded into 6-cm culture dishes. The pBIND-MR and pBIND-PR plasmids were separately transfected into the HEK293 cells using a transfection reagent, resulting in HEK293 cells successfully transfected with the pBIND-MR and pBIND-PR plasmids, respectively. The cells were resuspended in phenol red-free DMEM medium containing 5% charcoal-stripped serum, counted, and then seeded into 96-well plates. The test compounds were added, and the plates were then incubated in an incubator. The luminescence signal values were measured using a multimode microplate reader following the instructions of the luciferase assay kit. The EC50 values of each test compound were calculated using the nonlinear fitting formula with GraphPad Prism 8.0 software.

[3] = molecular target: T3, progesterone receptor (PR) (Homo sapiens, UniProt P06401); experiment: Assay for agonist activity on progesterone receptor (luciferase reporter, HEK293 cells transfected with pBIND-PR plasmid); settings: for EC50: EC50 of agonist activity, HEK293 reporter cells, top concentration 50 µM, read-out: Nuclear receptor enzyme activity (nM) PR; for Target selectivity PR/GR: ratio of EC50 values
T3 sequence (P06401 678-933): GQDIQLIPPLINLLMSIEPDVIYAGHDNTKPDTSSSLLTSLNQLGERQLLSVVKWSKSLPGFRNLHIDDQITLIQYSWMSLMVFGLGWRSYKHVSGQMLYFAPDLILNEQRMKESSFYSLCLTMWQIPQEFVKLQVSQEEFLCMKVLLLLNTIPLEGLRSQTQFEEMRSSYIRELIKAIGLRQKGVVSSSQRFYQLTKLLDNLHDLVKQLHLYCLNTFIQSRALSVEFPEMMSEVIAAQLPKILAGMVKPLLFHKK
Description: as §1, §2, §3, §4, §5

[4] = EC50 of agonist activity, HEK293 reporter cells, read-out: Nuclear receptor enzyme activity (nM) GR
[5] = HEK293 cells transfected with pBIND-GR, luciferase signal, read-out: GR agonist EC50

C[C@]12C=CC(=O)C=C1CC[C@H]1[C@@H]3C[C@H]4OC(c5ccc(CS(=O)(=O)C6CCOC6=O)cc5)O[C@@]4(C(=O)CO)[C@@]3(C)C[C@H](O)[C@@]12F (stereo partly drawn) [Compound 59, (6aS,6bR,7S,8aS,8bS,11aR,12aS,12bS)-6b-Fluoro-7-hydroxy-8b-(2-hydroxyacetyl)-6a,8a-dimethyl-10-(4-(((2-oxotetrahydrofuran-3-yl)sulfonyl)methyl)phenyl)-1,2,6a,6b,7,8,8a,8b,11a,12,12a,12b-dodecahydro-4H-naphtho[2',1':4,5]indeno[1,2-d][1,3]dioxol-4-one]
EC50 [1, 4]: 4.01 nM
EC50 [1, 5]: 4.01 nM
EC50 [2]: > 50000 nM
Target selectivity MR/GR [2]: > 1.2×10^4
EC50 [3]: > 50000 nM
Target selectivity PR/GR [3]: > 1.2×10^4

C[C@]12C=CC(=O)C=C1CC[C@H]1[C@@H]3C[C@H]4OC(c5ccc(CNC6CCOC6=O)cc5)O[C@@]4(C(=O)CO)[C@@]3(C)C[C@H](O)[C@@]12Cl (stereo partly drawn) [Compound 24, (6aS,6bR,7S,8aS,8bS,11aR,12aS,12bS)-6b-Chloro-7-hydroxy-8b-(2-hydroxyacetyl)-6a,8a-dimethyl-10-(4-(((2-oxotetrahydrofuran-3-yl)amino)methyl)phenyl)-1,2,6a,6b,7,8,8a,8b,11a,12,12a,12b-dodecahydro-4H-naphtho[2',1':4,5]indeno[1,2-d][1,3]dioxol-4-one]
EC50 [1, 4]: 1.12 nM
EC50 [1, 5]: 1.12 nM
EC50 [2]: > 50000 nM
Target selectivity MR/GR [2]: > 4.5×10^4
EC50 [3]: > 50000 nM
Target selectivity PR/GR [3]: > 4.5×10^4

C[C@]12C=CC(=O)C=C1[C@@H](F)C[C@H]1[C@@H]3C[C@H]4OC(c5ccc(COC6CCOC6=O)cc5F)O[C@@]4(C(=O)CO)[C@@]3(C)C[C@H](O)[C@@]12F (stereo partly drawn) [Compound 7, (2S,6aS,6bR,7S,8aS,8bS,11aR,12aS,12bS)-2,6b-Difluoro-10-(2-fluoro-4-(((2-oxotetrahydrofuran-3-yl)oxy)methyl)phenyl)-7-hydroxy-8b-(2-hydroxyacetyl)-6a,8a-dimethyl-1,2,6a,6b,7,8,8a,8b,11a, 12,12a,12b-dodecahydro-4H-naphtho[2',1':4,5]indeno[1,2-d][1,3]dioxol-4-one]
EC50 [1, 4]: 1.21 nM
EC50 [1, 5]: 1.21 nM
EC50 [2]: > 50000 nM
Target selectivity MR/GR [2]: > 4.1×10^4
EC50 [3]: > 50000 nM
Target selectivity PR/GR [3]: > 4.1×10^4

C[C@]12C=CC(=O)C=C1[C@@H](F)C[C@H]1[C@@H]3C[C@H]4OC(c5ccc(OCC6CCOC6=O)cc5)O[C@@]4(C(=O)CO)[C@@]3(C)C[C@H](O)[C@@]12F (stereo partly drawn) [Compound 13, (2S,6aS,6bR,7S,8aS,8bS,11aR,12aS,12bS)-2,6b-Difluoro-7-hydroxy-8b-(2-hydroxyacetyl)-6a,8a-dimethyl-10-(4-((2-oxotetrahydrofuran-3-yl)methoxy)phenyl)-1,2,6a,6b,7,8,8a,8b,11a,12,12a,12b-dodecahydro-4H-naphtho[2',1':4,5]indeno[1,2-d][1,3]dioxol-4-one]
EC50 [1, 4]: 3.43 nM
EC50 [1, 5]: 3.43 nM
EC50 [2]: > 50000 nM
Target selectivity MR/GR [2]: > 1.4×10^4
EC50 [3]: > 50000 nM
Target selectivity PR/GR [3]: > 1.4×10^4

C[C@]12C=CC(=O)C=C1[C@@H](F)C[C@H]1[C@@H]3C[C@H]4OC(c5ccc(NC(=O)C6COC(=O)C6)cc5)O[C@@]4(C(=O)SCF)[C@@]3(C)C[C@H](O)[C@@]12F (stereo partly drawn) [Compound 5, S-(Fluoromethyl) (2S,6aS,6bR,7S,8aS,8bS,11aR,12aS,12bS)-2,6b-difluoro-7-hydroxy-6a,8a-dimethyl-4-oxo-10-(4-(5-oxotetrahydrofuran-3-carboxamido)phenyl)-1,2,4,6a,6b,7,8,8a,11a,12,12a,12b-dodecahydro-8b H-naphtho[2',1':4,5]indeno[1,2-d][1,3]dioxole-8b-carbothioate]
EC50 [1, 4]: 5.23 nM
EC50 [1, 5]: 5.23 nM
EC50 [2]: > 50000 nM
Target selectivity MR/GR [2]: > 9560
EC50 [3]: > 50000 nM
Target selectivity PR/GR [3]: > 9560

C[C@]12C=CC(=O)C=C1[C@@H](F)C[C@H]1[C@@H]3C[C@H]4OC(C5CCN(C(=O)C6COC(=O)C6)CC5)O[C@@]4(C(=O)SCF)[C@@]3(C)C[C@H](O)[C@@]12F (stereo partly drawn) [Compound 4, S-(Fluoromethyl) (2S,6aS,6bR,7S,8aS,8bS,11aR,12aS,12bS)-2,6b-difluoro-7-hydroxy-6a,8a-dimethyl-4-oxo-10-(1-(5-oxotetrahydrofuran-3-carbonyl)piperidin-4-yl)-1,2,4,6a,6b,7,8,8a,11a,12,12a,12b-dodecahydro-8bH-naphtho[2',1':4,5]indeno[1,2-d][1,3]dioxole-8b-carbothioate]
EC50 [1, 4]: 11.8 nM
EC50 [1, 5]: 11.8 nM
EC50 [2]: > 50000 nM
Target selectivity MR/GR [2]: > 4223
EC50 [3]: > 50000 nM
Target selectivity PR/GR [3]: > 4223

C[C@]12C=CC(=O)C=C1CC[C@H]1[C@@H]3C[C@H]4OC(c5cnc(CSC6CCOC6=O)nc5)O[C@@]4(C(=O)CO)[C@@]3(C)C[C@H](O)[C@@]12F (stereo partly drawn) [Compound 53, (6aS,6bR,7S,8aS,8bS,11aR,12aS,12bS)-6b-Fluoro-7-hydroxy-8b-(2-hydroxyacetyl)-6a,8a-dimethyl-10-(2-(((2-oxotetrahydrofuran-3-yl)thio)methyl)pyrimidin-5-yl)-1,2,6a,6b,7,8,8a,8b,11a,12,12a, 12b-dodecahydro-4H-naphtho[2',1':4,5]indeno[1,2-d][1,3]dioxol-4-one]
EC50 [1, 4]: 8.31 nM
EC50 [1, 5]: 8.31 nM
EC50 [2]: > 50000 nM
Target selectivity MR/GR [2]: 6017
EC50 [3]: > 50000 nM
Target selectivity PR/GR [3]: 6017

C[C@]12C=CC(=O)C=C1[C@@H](F)C[C@H]1[C@@H]3C[C@H]4OC(c5ccc(C[S+]([O-])C6CCOC6=O)cc5)O[C@@]4(C(=O)CO)[C@@]3(C)C[C@H](O)[C@@]12F (stereo partly drawn) [Compound 55, (2S,6aS,6bR,7S,8aS,8bS,11aR,12aS,12bS)-2,6b-Difluoro-7-hydroxy-8b-(2-hydroxyacetyl)-6a,8a-dimethyl-10-(4-(((2-oxotetrahydrofuran-3-yl)sulfinyl)methyl)phenyl)-1,2,6a,6b,7,8,8a,8b,11a,12,1 2a,12b-dodecahydro-4H-naphtho[2',1':4,5]indeno[1,2-d][1,3]dioxol-4-one]
EC50 [1, 4]: 1.33 nM
EC50 [1, 5]: 1.33 nM
EC50 [2]: > 50000 nM
Target selectivity MR/GR [2]: > 3.8×10^4
EC50 [3]: > 50000 nM
Target selectivity PR/GR [3]: > 3.8×10^4

C[C@]12C=CC(=O)C=C1CC[C@H]1[C@@H]3C[C@H]4OC(c5ccc(SC6CCOC6=O)cc5)O[C@@]4(C(=O)CO)[C@@]3(C)C[C@H](O)[C@@]12F (stereo partly drawn) [Compound 41, (6aS,6bR,7S,8aS,8bS,11aR,12aS,12bS)-6b-Fluoro-7-hydroxy-8b-(2-hydroxyacetyl)-6a,8a-dimethyl-10-(4-((2-oxotetrahydrofuran-3-yl)thio)phenyl)-1,2,6a,6b,7,8,8a,8b,11a,12,12a,12b-dodecahydr o-4H-naphtho[2',1':4,5]indeno[1,2-d][1,3]dioxol-4-one]
EC50 [1, 4]: 6.19 nM
EC50 [1, 5]: 6.19 nM
EC50 [2]: > 50000 nM
Target selectivity MR/GR [2]: > 8077
EC50 [3]: > 50000 nM
Target selectivity PR/GR [3]: > 8077
